Oligonucleotides are written 5' to 3', each unit as a sugar letter and its base; * is a phosphorothioate linkage, no mark a phosphodiester; rarer units and linkages stand in square brackets, end groups in braces. Plain capitals give the bases only. e = 2'-O-(2-methoxyethyl) (MOE); [5mC] = 5-methylcytosine; d = 2'-deoxy (DNA)

The first data set deals with human CD40 mRNA. Kind of data set: Inhibition of CD40 mRNA levels by oligonucleotides (real-time RT-PCR). It is filed as cell-based. Also noted: concentration or dose not given beside the values. Conditions: 2'-MOE gapmers, 18 nucleotides, phosphorothioate throughout; averaged from three experiments. As for the experimental part: When cells reach about 80% confluency, they are treated with oligonucleotide. For cells grown in 96-well plates, wells are washed once with 200 μl Opti-MEM-1 reduced-serum medium (Life Technologies) and then treated with 130 μl of Opti-MEM-1 containing 3.75 μg/ml LIPOFECTIN (Life Technologies) and the desired oligonucleotide at a final concentration of 150 nM. After 4 hours of treatment, the medium was replaced with fresh medium. Cells were harvested 16 hours after oligonucleotide treatment.
Poly(A)+ mRNA was isolated according to Miura et al. (Clin. Chem., 1996, 42, 1758). Briefly, for cells grown on 96-well plates, growth medium was removed from the cells and each well was washed with 200 ul cold PBS. 60 ul lysis buffer (10 mM Tris-HCl, pH 7.6, 1 mM EDTA, 0.5 M NaCl, 0.5% NP-40, 20 mM vanadyl-ribonucleoside complex) was added to each well, the plate was gently agitated and then incubated at room temperature for five minutes. 55 ul of lysate was transferred to Oligo d(T) coated 96 well plates (AGCT Inc., Irvine, Calif.). Plates were incubated for 60 minutes at room temperature, washed 3 times with 200 ul of wash buffer (10 mM Tris-HCl pH 7.6, 1 mM EDTA, 0.3 M NaCl). After the final wash, the plate was blotted on paper towels to remove excess wash buffer and then air-dried for 5 minutes. 60 ul of elution buffer (5 mM Tris-HCl pH 7.6), preheated to 70° C. was added to each well, the plate was incubated on a 90° hot plate for 5 minutes, and the eluate then transferred to a fresh 96 well plate. Cells grown on 100 mm or other standard plates may be treated similarly, using appropriate volumes of all solutions.
Quantitation of CD40 mRNA levels was determined by real-time PCR (RT-PCR) using the ABI PRISM 7700 Sequence Detection System (PE-Applied Biosystems, Foster City, Calif.) according to manufacturer's instructions. This is a closed-tube, non-gel-based, fluorescence detection system which allows high-throughput quantitation of polymerase chain reaction (PCR) products in real-time.
As opposed to standard PCR, in which amplification products are quantitated after the PCR is completed, products in RT-PCR are quantitated as they accumulate. This is accomplished by including in the PCR reaction an oligonucleotide probe that anneals specifically between the forward and reverse PCR primers, and contains two fluorescent dyes. A reporter dye (e.g., JOE or FAM, PE-Applied Biosystems, Foster City, Calif.) is attached to the 5′ end of the probe and a quencher dye (e.g., TAMRA, PE-Applied Biosystems, Foster City, Calif.) is attached to the 3′ end of the probe. When the probe and dyes are intact, reporter dye emission is quenched by the proximity of the 3′ quencher dye. During amplification, annealing of the probe to the target sequence creates a substrate that can be cleaved by the 5′-exonuclease activity of Taq polymerase.
With each cycle, additional reporter dye molecules are cleaved from their respective probes, and the fluorescence intensity is monitored at regular (six-second) intervals by laser optics built into the ABI PRISM 7700 Sequence Detection System. In each assay, a series of parallel reactions containing serial dilutions of mRNA from untreated control samples generates a standard curve that is used to quantitate the percent inhibition after antisense oligonucleotide treatment of test samples.
RT-PCR reagents were obtained from PE-Applied Biosystems, Foster City, Calif. RT-PCR reactions were carried out by adding 25 ul PCR cocktail (1× Taqman buffer A, 5.5 mM MgCl2, 300 uM each of dATP, dCTP and dGTP, 600 uM of dUTP, 100 nM each of forward primer, reverse primer, and probe, 20 U RNAse inhibitor, 1.25 units AmpliTaq Gold, and 12.5 U MuLV reverse transcriptase) to 96 well plates containing 25 ul poly(A) mRNA solution. […]
On to “19223 (antisense eG*e[5mC]*eA*eG*dT*dG*dG*dG*dT*dG*dG*dT*dT*dC*eT*eG*eG*eA) [compound 19223]”, for which the “% Inhibition (Inhibition of CD40 mRNA Levels by Chimeric Phosphorothioate Oligonucleotides)” value (“% Inhibition” below) was 73.70%.

Take “19233 (antisense eA*eT*eT*e[5mC]*dC*dG*dT*dT*dT*dC*dA*dG*dT*dG*eA*eA*e[5mC]*eT) [compound 19233]”: the “% Inhibition” value stood at 56.03%. With “19219 (DNA eG*eA*eT*eG*dG*dA*dC*dA*dG*dC*dG*dG*dT*dC*eA*eG*e[5mC]*eA; antisense) [compound 19219]”, the “% Inhibition” value is recorded as 65.14%. On to “19289 (e[5mC]*eT*e[5mC]*eT*dT*dT*dG*dC*dC*dA*dT*dC*dC*dT*e[5mC]*e[5mC]*eT*eG; antisense) [compound 19289]”, for which the “% Inhibition” value was determined as 41.84%.

Take “19279 (eT*eA*eT*eT*dG*dG*dT*dT*dG*dG*dC*dT*dT*dC*eT*eT*eG*eG; antisense) [compound 19279]”: the “% Inhibition” value is 49.26%. Same read-out and setting: in the case of “19265 (e[5mC]*eA*e[5mC]*eA*dG*dC*dT*dT*dG*dT*dC*dC*dA*dA*eG*eG*eG*eT; antisense) [compound 19265]” it was 0.00%; in that of “19262 (eG*e[5mC]*eA*eG*dA*dT*dG*dA*dC*dA*dC*dA*dT*dT*eG*eG*eA*eG; antisense) [compound 19262]”, 78.48%. For the substance “19283 (eG*eG*eA*eG*dC*dC*dA*dG*dG*dA*dA*dG*dA*dT*e[5mC]*eG*eT*e[5mC]; antisense) [compound 19283]”, the “% Inhibition” value came to 69.47%.

For the substance “19248 (antisense eT*eA*e[5mC]*eA*dG*dT*dG*dC*dC*dA*dG*dC*dC*dT*eT*e[5mC]*eT*eT) [compound 19248]”, the “% Inhibition” value worked out at 46.82%. Turning to “19217 (DNA eG*eG*eT*e[5mC]*dA*dG*dC*dA*dA*dG*dC*dA*dG*dC*e[5mC]*e[5mC]*e[5mC]*eA; antisense) [compound 19217]”, the “% Inhibition” value is 74.73%. The same measure, in the same setting: then “19225 (antisense e[5mC]*eT*eG*eG*dC*dA*dC*dA*dA*dA*dG*dA*dA*dC*eA*eG*e[5mC]*eA) [compound 19225]”, with 60.11%; and “19281 (eG*eT*e[5mC]*eG*dG*dG*dA*dA*dA*dA*dT*dT*dG*dA*eT*e[5mC]*eT*e[5mC]; antisense) [compound 19281]”, with 54.78%; and “19241 (antisense eG*eG*eT*eG*dC*dC*dC*dT*dT*dC*dT*dG*dC*dT*eG*eG*eA*e[5mC]) [compound 19241]”, with 78.91%. The same measure, in the same setting: in the case of “19276 (eG*eA*eG*eG*dA*dT*dG*dG*dC*dA*dA*dA*dC*dA*eG*eG*eA*eT; antisense) [compound 19276]” it was 49.14%. On the same count and under the same terms, then “19226 (antisense eT*e[5mC]*e[5mC]*eT*dG*dG*dC*dT*dG*dG*dC*dA*dC*dA*eA*eA*eG*eA) [compound 19226]”, with 10.18%; and “19258 (antisense eT*eG*eG*eG*dC*dA*dG*dG*dG*dC*dT*dC*dG*dC*eA*eG*eA*eT) [compound 19258]”, with 0.00%. “19251 (antisense eG*eA*eG*e[5mC]*dG*dG*dT*dG*dC*dA*dG*dG*dA*dC*eA*e[5mC]*eA*eG) [compound 19251]”: the “% Inhibition” value is on record as 50.15%.

Still in this data set, the particulars now being: oligodeoxynucleotides with phosphorothioate backbones throughout; averages from three experiments.
As for “18626 (DNA dC*dA*dG*dA*dG*dG*dC*dA*dG*dA*dC*dG*dA*dA*dC*dC*dA*dT; antisense) [compound 18626]”, the “% INHIB. (Inhibition of CD40 mRNA Levels by Phosphorothioate Oligodeoxynucleotides)” value is 0.00%. Same read-out and setting: in the case of “18673 (DNA dG*dA*dT*dG*dA*dC*dA*dC*dA*dT*dT*dG*dG*dA*dG*dA*dA*dG; antisense) [compound 18673]” it was 0.00%; in that of “18695 (DNA dG*dG*dA*dG*dC*dC*dA*dG*dG*dA*dA*dG*dA*dT*dC*dG*dT*dC; antisense) [compound 18695]”, 0.00%. The same measure, in the same setting: in the case of “18704 (DNA dA*dA*dC*dT*dG*dC*dC*dT*dG*dT*dT*dT*dG*dC*dC*dC*dA*dC; antisense) [compound 18704]” it was 33.89%; in that of “18654 (DNA dC*dT*dG*dA*dG*dG*dT*dG*dC*dC*dC*dT*dT*dC*dT*dG*dC*dT; antisense) [compound 18654]”, 15.63%; in that of “18629 (DNA dG*dG*dT*dC*dA*dG*dC*dA*dA*dG*dC*dA*dG*dC*dC*dC*dC*dA; antisense) [compound 18629]”, 29.96%.

“18694 (DNA dG*dA*dT*dC*dG*dT*dC*dG*dG*dG*dA*dA*dA*dA*dT*dT*dG*dA; antisense) [compound 18694]”: the “% INHIB. (Inhibition of CD40 mRNA Levels by Phosphorothioate Oligodeoxynucleotides)” value came out at 0.00%.

Consider “18663 (DNA dG*dA*dG*dC*dG*dG*dT*dG*dC*dA*dG*dG*dA*dC*dA*dC*dA*dG; antisense) [compound 18663]”, for which the “% INHIB. (Inhibition of CD40 mRNA Levels by Phosphorothioate Oligodeoxynucleotides)” value was found to be 0.00%. Still for that read-out and setting: then “18683 (DNA dC*dC*dA*dC*dA*dG*dA*dC*dA*dA*dC*dA*dT*dC*dA*dG*dT*dC; antisense) [compound 18683]”, with 0.00%; and “18624 (DNA dG*dA*dC*dC*dA*dG*dG*dC*dG*dG*dC*dA*dG*dG*dA*dC*dC*dA; antisense) [compound 18624]”, with 28.09%; and “18672 (DNA dC*dA*dT*dT*dG*dG*dA*dG*dA*dA*dG*dA*dA*dG*dC*dC*dG*dA; antisense) [compound 18672]”, with 0.00%.

With “18652 (DNA dC*dT*dA*dG*dG*dT*dT*dG*dG*dG*dG*dT*dC*dG*dC*dA*dG*dT; antisense) [compound 18652]”, the “% INHIB. (Inhibition of CD40 mRNA Levels by Phosphorothioate Oligodeoxynucleotides)” value is 0.00%. With “18696 (DNA dT*dG*dG*dA*dG*dC*dC*dA*dG*dG*dA*dA*dG*dA*dT*dC*dG*dT; antisense) [compound 18696]”, the “% INHIB. (Inhibition of CD40 mRNA Levels by Phosphorothioate Oligodeoxynucleotides)” value was 0.00%. The same measure, in the same setting: then “18662 (DNA dT*dG*dC*dA*dG*dG*dA*dC*dA*dC*dA*dG*dC*dT*dC*dT*dC*dA; antisense) [compound 18662]”, with 0.00%; and “18680 (DNA dC*dT*dG*dT*dT*dG*dC*dA*dC*dA*dA*dC*dC*dA*dG*dG*dT*dC; antisense) [compound 18680]”, with 18.76%; and “18649 (DNA dC*dT*dG*dG*dT*dG*dG*dC*dA*dG*dT*dG*dT*dG*dT*dC*dT*dC; antisense) [compound 18649]”, with 0.00%. On the same count and under the same terms, then “18699 (DNA dT*dG*dG*dC*dA*dT*dC*dC*dA*dT*dG*dT*dA*dA*dA*dG*dT*dC; antisense) [compound 18699]”, with 0.00%; and “18666 (DNA dG*dA*dA*dA*dC*dC*dC*dC*dT*dG*dT*dA*dG*dC*dA*dA*dT*dC; antisense) [compound 18666]”, with 0.10%.

Source of the values: patent US20050142581A1, “Microrna as ligands and target molecules” (priority 2003, published 2005).
